Earlier results, collected in US7560455B2, “3-Amino-4-phenylbutanoic acid derivatives as dipeptidyl peptidase inhibitors for the treatment or prevention of diabetes” (Merck & Co., Inc., priority 2003, dated 2009).
Blank lines part the entries; values can stand above or below the compound they belong to.

Assays:
[1] = target: T1, DP-IV (Homo sapiens, UniProt P27487)
T1 construct: GRF is rapidly degraded in plasma to GRF[3-44]

[2] = test system: hematopoiesis; details: mouse, cyclophosphamide-induced neutropenia
[3] = test system: cardiac allograft; details: rats; doubled from day 7 to day 14

T1 sequence (P27487 whole entry): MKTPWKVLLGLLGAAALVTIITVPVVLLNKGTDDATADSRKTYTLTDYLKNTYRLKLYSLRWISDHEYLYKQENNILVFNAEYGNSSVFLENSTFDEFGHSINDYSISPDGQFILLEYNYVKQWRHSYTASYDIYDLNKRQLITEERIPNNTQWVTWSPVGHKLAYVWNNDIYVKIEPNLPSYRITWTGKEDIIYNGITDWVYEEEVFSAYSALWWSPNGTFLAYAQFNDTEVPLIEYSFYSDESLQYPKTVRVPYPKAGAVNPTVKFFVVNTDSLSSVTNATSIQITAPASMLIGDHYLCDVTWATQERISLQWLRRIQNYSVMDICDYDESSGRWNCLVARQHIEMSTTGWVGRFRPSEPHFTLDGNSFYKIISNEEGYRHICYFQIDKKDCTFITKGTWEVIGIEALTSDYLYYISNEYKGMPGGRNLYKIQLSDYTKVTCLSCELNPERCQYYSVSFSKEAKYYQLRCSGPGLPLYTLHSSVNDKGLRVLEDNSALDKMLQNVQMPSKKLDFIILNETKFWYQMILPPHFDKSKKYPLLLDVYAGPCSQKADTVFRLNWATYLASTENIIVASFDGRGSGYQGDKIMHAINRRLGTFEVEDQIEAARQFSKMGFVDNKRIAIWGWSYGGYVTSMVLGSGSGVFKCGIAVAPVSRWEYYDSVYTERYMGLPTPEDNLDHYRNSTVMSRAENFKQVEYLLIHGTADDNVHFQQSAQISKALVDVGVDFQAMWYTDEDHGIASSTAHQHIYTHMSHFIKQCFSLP

effect on degradation of GRF in plasma to GRF[3-44] [1]: prevented
Compound: diprotin A

Compound: CC(C)[C@H](N)C(=O)N1CCC[C@H]1B(O)O [Val-Boro-Pro]
effect on hematopoiesis [2]: stimulated hematopoiesis

Compound: CC(C)N1CCC(c2ccccc2)(c2ccccc2)CC1 [Prodipine, Pro-Pro-diphenyl-phosphonate]
cardiac allograft survival [3]: 14 day
